Measurements published in article PMC10197776 (Research Square, 2023).

Columns and labels:
SARS-CoV-2 = test system: SARS-CoV-2; set-up: method as in PMID 35352927; details: TMPRSS2 VeroE6 model of SARS-CoV-2 infection; read-out: EC50 (antiviral); cited from earlier work
SARS-CoV2 = test system: SARS-CoV2; set-up: method as in PMID 33786375, PMID 34161756; details: SARS-CoV2 plaque reduction assay; read-out: antiviral EC50; cited from earlier work
[1] = Intrinsic clearance in human microsomes; type: in vitro ADME
[2] = Intrinsic clearance in human S9 fractions; type: in vitro ADME
SARS-CoV-2 3CL^pro = SARS-CoV-2 3CL^pro (Severe acute respiratory syndrome coronavirus 2, UniProt P0DTD1); experiment: biochemical; type: biochemical; details: for IC50: SARS-CoV-2 3CLpro

With `Cn1cnc(Cn2c(=O)[nH]/c(=N\c3cc4cn(C)nc4cc3Cl)n(Cc3cc(F)c(F)cc3F)c2=O)n1` [compound 2, Ensitrelvir] as the compound, how does the EC50 (SARS-CoV-2) read?
Its EC50 is 370 nM.

For `N#Cc1ccccc1-c1cc(-c2cc(Cl)cc(OCC3CC3)c2)c(=O)n(-c2cccnc2)c1` [compound 3], which EC50 (SARS-CoV2) is on record?
Its EC50 is 980 nM.

For `O=C(Cc1cccnc1)N(Cc1cccc(Cl)c1)c1ccc(-c2cn[nH]c2)cc1` [compound 7], which “reduction in intrinsic clearance metabolism versus 6” value [1] is on record?
The value was “two-fold reduction”.

What about the “reduction in intrinsic clearance metabolism versus 6” value [2] of the same compound?
Its value is “two-fold reduction”.

And the IC50 (SARS-CoV-2 3CL^pro)?
The IC50 was 1270 nM.

What about the “LE (ligand efficiency)” value (SARS-CoV-2 3CL^pro; from 3CLpro IC50) of the same compound?
The value was 0.27.

Which “fold improvement in IC50 compared to monocyclic pyridine 19” value (SARS-CoV-2 3CL^pro; IC50 ratio vs 19) does the source give for `O=C(Cc1cncc2ccccc12)N(Cc1cc(F)cc(Cl)c1)c1ccc(-c2c[nH]cn2)cc1` [compound 27] here?
The value was > 6 fold.

What about the IC50 (SARS-CoV-2 3CL^pro) of the same compound?
Its IC50 is 26 nM.

What about the LipE (SARS-CoV-2 3CL^pro; from 3CLpro IC50 and calculated properties) of the same compound?
Its LipE is 2.24.
